Experimental data: patent publication US20160151337A1, “ANNELATED PYRROLES AND THEIR USE AS CRAC INHIBITORS” (Grünenthal GmbH, priority 2013, published 2016)

What was measured:
CRAC channel = molecular target: T1, CRAC channel (Homo sapiens, UniProt Q96D31); test: HEK Calcium Influx Assay (FLIPR), inhibition of store-operated Ca2+ entry after thapsigargin store depletion; type: cell-based; conditions: 10 μM compound, HEK293 cells, read-out: % inhib. [@ 10 μM] FLIPR
T1 construct: endogenous in cells; host or cells: HEK293 (ECACC), untransfected
Procedure, shortened: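 HEK293 cells loaded with Calcium-4 dye in Ca2+-free HBS (pH 7.4), stores depleted with 2 μM thapsigargin for 10 min (100 μM EGTA); after 3 mM CaCl2 re-addition and 15 min steady-state, compounds added and FLIPR signal averaged 9.5–10 min post-dose. IC50 from 8-point 1:3.16 dilutions from 10 μM, normalised to DMSO and non-depleted wells.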

[1] = test system: Interleukin-2 (IL-2) production/release in Jurkat T cells; test: Jurkat IL-2 Production Assay (PHA-stimulated, IL-2 AlphaLisa); type: cell-based; conditions: Homo sapiens, PHA 15 μg/ml, 22 h, inhibition of IL-2 production
Procedure, shortened: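 Jurkat E6-1 cells (5*10^5/well, DMEM/F12 with 10% FCS) pretreated 30 min with compound, then stimulated 22 h with 15 μg/ml PHA at 37 °C. IC50 from 8-point 1:3.16 dilution starting at 10 μM.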

T1 sequence (Q96D31 whole entry): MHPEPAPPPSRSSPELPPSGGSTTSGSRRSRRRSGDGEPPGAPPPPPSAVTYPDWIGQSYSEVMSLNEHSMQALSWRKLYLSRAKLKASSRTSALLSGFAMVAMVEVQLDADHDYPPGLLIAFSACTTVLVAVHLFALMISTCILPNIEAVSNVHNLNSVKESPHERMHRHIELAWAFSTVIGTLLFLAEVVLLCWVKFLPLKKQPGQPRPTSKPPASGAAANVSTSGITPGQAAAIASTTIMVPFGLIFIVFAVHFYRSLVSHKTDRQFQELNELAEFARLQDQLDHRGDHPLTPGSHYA

SMILES	inhibition at 10 µM (CRAC channel)	IC50 [1]
Cc1cc(C#N)cnc1N1CCc2[nH]c(-c3c(F)cccc3F)cc2C1 [Example 68, 6-[2-(2,6-Difluoro-phenyl)-4,5,6,7-tetrahydro-1H-pyrrolo[3,2-c]pyridin-5-yl]-5-methyl-nicotinonitrile]	> 70%	< 0.5 µM
Cc1cc(C)c(-c2cc3c([nH]2)CCN(c2cnc(S(C)(=O)=O)cc2C)C3)cn1 [Example 92, 2-(4,6-Dimethyl-pyridin-3-yl)-5-(4-methyl-6-methylsulfonyl-pyridin-3-yl)-4,5,6,7-tetrahydro-1H-pyrrolo[3,2-c]pyridine]	> 70%	1 to 5 µM
Cc1cc(C(F)(F)F)ncc1N1CCc2[nH]c(C3CCCCC3)cc2C1 [Example 97, 2-Cyclohexyl-5-[4-methyl-6-(trifluoromethyl)-pyridin-3-yl]-4,5,6,7-tetrahydro-1H-pyrrolo[3,2-c]pyridine]	50 to 70%	1 to 5 µM
CNS(=O)(=O)c1ccc(N2CCc3[nH]c(-c4c(F)cccc4F)cc3C2)c(C)c1 [Example 114, 4-[2-(2,6-Difluoro-phenyl)-4,5,6,7-tetrahydro-1H-pyrrolo[3,2-c]pyridin-5-yl]-N,3-dimethyl-benzenesulfonic acid amide]	< 50%	< 0.5 µM
Cc1sc(-c2ccccc2)nc1N1CCc2[nH]c(-c3c(F)cccc3F)cc2C1 [Example 23, 4-[2-(2,6-Difluoro-phenyl)-4,5,6,7-tetrahydro-1H-pyrrolo[3,2-c]pyridin-5-yl]-5-methyl-2-phenyl-thaizole]	< 50%	1 to 5 µM
CCOc1cc(C)c(N2CCc3[nH]c(-c4c(F)cccc4F)cc3C2)cn1 [Example 69, 2-(2,6-Difluoro-phenyl)-5-(6-ethoxy-4-methyl-pyridin-3-yl)-4,5,6,7-tetrahydro-1H-pyrrolo[3,2-c]pyridine]	> 70%	0.5 to 1 µM
Cc1ccncc1N1CCc2[nH]c(-c3c(F)cccc3F)cc2C1 [Example 10, 2-(2,6-Difluoro-phenyl)-5-(4-methyl-pyridin-3-yl)-4,5,6,7-tetrahydro-1H-pyrrolo[3,2-c]pyridine]	> 70%	1 to 5 µM
Cc1cc(S(C)(=O)=O)ncc1N1CCc2[nH]c(-c3c(F)cccc3F)cc2C1 [Example 16, 2-(2,6-Difluoro-phenyl)-5-(4-methyl-6-methylsulfonyl-pyridin-3-yl)-4,5,6,7-tetrahydro-1H-pyrrolo[3,2-c]pyridine]	> 70%	< 0.5 µM
Cc1cc(S(C)(=O)=O)ncc1N1CCc2[nH]c(C3CCCC3)cc2C1 [Example 118, 2-Cyclopentyl-5-(4-methyl-6-methylsulfonyl-pyridin-3-yl)-4,5,6,7-tetrahydro-1H-pyrrolo[3,2-c]pyridine]	> 70%	1 to 5 µM
Cc1cc(S(C)(=O)=O)ncc1N1CCc2[nH]c(-c3c(F)cccc3F)c(Br)c2C1 [Example 91, 3-Bromo-2-(2,6-difluoro-phenyl)-5-(4-methyl-6-methylsulfonyl-pyridin-3-yl)-4,5,6,7-tetrahydro-1H-pyrrolo[3,2-c]pyridine]	50 to 70%	1 to 5 µM
Cn1nc(C2CC2)cc1N1CCc2[nH]c(-c3c(F)cccc3F)cc2C1 [Example 106, 5-(5-Cyclopropyl-2-methyl-2H-pyrazol-3-yl)-2-(2,6-difluoro-phenyl)-4,5,6,7-tetrahydro-1H-pyrrolo[3,2-c]pyridine]	> 70%	0.5 to 1 µM
CCn1nc(C2(C(F)(F)F)CC2)cc1N1CCc2[nH]c(-c3c(F)cccc3F)cc2C1 [Example 124, 2-(2,6-Difluoro-phenyl)-5-[2-ethyl-5-[1-(trifluoromethyl)-cyclopropyl]-2H-pyrazol-3-yl]-4,5,6,7-tetrahydro-1H-pyrrolo[3,2-c]pyridine]	< 50%	< 0.5 µM
Cn1nc(N2CCc3[nH]c(-c4c(F)cccc4F)cc3C2)cc1C1CC1 [Example 107, 5-(5-Cyclopropyl-1-methyl-1H-pyrazol-3-yl)-2-(2,6-difluoro-phenyl)-4,5,6,7-tetrahydro-1H-pyrrolo[3,2-c]pyridine]	> 70%	1 to 5 µM
Cc1nc(Cl)ccc1N1CCc2[nH]c(-c3c(F)cccc3F)cc2C1 [Example 15, 5-(6-Chloro-2-methyl-pyridin-3-yl)-2-(2,6-difluoro-phenyl)-4,5,6,7-tetrahydro-1H-pyrrolo[3,2-c]pyridine]	> 70%	1 to 5 µM
Cc1cc(S(=O)(=O)NCC(F)(F)F)ccc1N1CCc2[nH]c(-c3c(F)cccc3F)cc2C1 [Example 136, 4-[2-(2,6-Difluoro-phenyl)-4,5,6,7-tetrahydro-1H-pyrrolo[3,2-c]pyridin-5-yl]-3-methyl-N-(2,2,2-trifluoro-ethyl)-benzenesulfonic acid amide]	< 50%	1 to 5 µM
CCOc1cc(OC)c(N2CCc3[nH]c(-c4c(F)cccc4F)cc3C2)cn1 [Example 143, 2-(2,6-Difluoro-phenyl)-5-(6-ethoxy-4-methoxy-pyridin-3-yl)-4,5,6,7-tetrahydro-1H-pyrrolo[3,2-c]pyridine]	< 50%	1 to 5 µM
Cc1ccc(-c2nccs2)cc1N1CCc2[nH]c(-c3c(F)cccc3F)cc2C1 [Example 8, 2-[3-[2-(2,6-Difluoro-phenyl)-4,5,6,7-tetrahydro-1H-pyrrolo[3,2-c]pyridin-5-yl]-4-methyl-phenyl]-thiazole]	> 70%	< 0.5 µM
Cc1cc(C(F)(F)F)ncc1N1CCc2[nH]c(-c3cncc(F)c3C)cc2C1 [Example 141, 2-(5-Fluoro-4-methyl-pyridin-3-yl)-5-[4-methyl-6-(trifluoromethyl)-pyridin-3-yl]-4,5,6,7-tetrahydro-1H-pyrrolo[3,2-c]pyridine]	> 70%	< 0.5 µM
Fc1cccc(F)c1-c1cc2c([nH]1)CCN(c1cc3c(cc1Cl)OC(F)(F)O3)C2 [Example 9, 5-(6-Chloro-2,2-difluoro-1,3-benzodioxol-5-yl)-2-(2,6-difluoro-phenyl)-4,5,6,7-tetrahydro-1H-pyrrolo[3,2-c]pyridine]	< 50%	1 to 5 µM
CCNS(=O)(=O)c1ccc(N2CCc3[nH]c(-c4c(F)cccc4F)cc3C2)c(C)c1 [Example 131, 4-[2-(2,6-Difluoro-phenyl)-4,5,6,7-tetrahydro-1H-pyrrolo[3,2-c]pyridin-5-yl]-N-ethyl-3-methyl-benzenesulfonic acid amide]	< 50%	1 to 5 µM
Cc1cc(N(C)S(C)(=O)=O)ccc1N1CCc2[nH]c(-c3c(F)cccc3F)cc2C1 [Example 132, N-[4-[2-(2,6-Difluoro-phenyl)-4,5,6,7-tetrahydro-1H-pyrrolo[3,2-c]pyridin-5-yl]-3-methyl-phenyl]-N-methyl-methanesulfonic acid amide]	< 50%	1 to 5 µM
CCn1nc(C2CC2)cc1N1CCc2[nH]c(-c3c(F)cccc3F)cc2C1 [Example 126, 5-(5-Cyclopropyl-2-ethyl-2H-pyrazol-3-yl)-2-(2,6-difluoro-phenyl)-4,5,6,7-tetrahydro-1H-pyrrolo[3,2-c]pyridine]	> 70%	0.5 to 1 µM
Cc1sc(-c2ccncc2)nc1N1CCc2[nH]c(-c3c(F)cccc3F)cc2C1 [Example 24, 4-[2-(2,6-Difluoro-phenyl)-4,5,6,7-tetrahydro-1H-pyrrolo[3,2-c]pyridin-5-yl]-5-methyl-2-pyridin-4-yl-thiazole]	> 70%	< 0.5 µM
Cc1cc(S(=O)(=O)N(C)C)ccc1N1CCc2[nH]c(-c3c(F)cccc3F)cc2C1 [Example 14, 4-[2-(2,6-Difluoro-phenyl)-4,5,6,7-tetrahydro-1H-pyrrolo[3,2-c]pyridin-5-yl]-N,N,3-trimethyl-benzenesulfonic acid amide]	< 50%	< 0.5 µM
Cc1ccccc1N1CCc2[nH]c(-c3c(F)cccc3F)cc2C1 [Example 22, 2-(2,6-Difluoro-phenyl)-5-o-tolyl-4,5,6,7-tetrahydro-1H-pyrrolo[3,2-c]pyridine]	> 70%	1 to 5 µM
COc1ccc(OC)c(N2CCc3[nH]c(-c4c(F)cccc4F)cc3C2)c1 [Example 21, 2-(2,6-Difluoro-phenyl)-5-(2,5-dimethoxyphenyl)-4,5,6,7-tetrahydro-1H-pyrrolo[3,2-c]pyridine]	> 70%	1 to 5 µM
Cc1ccc(Cl)cc1N1CCc2[nH]c(-c3c(F)cccc3Cl)cc2C1 [Example 64, 2-(2-Chloro-6-fluoro-phenyl)-5-(5-chloro-2-methyl-phenyl)-4,5,6,7-tetrahydro-1H-pyrrolo[3,2-c]pyridine]	< 50%	1 to 5 µM
Cc1cc(S(=O)(=O)N2CCCC2)ccc1N1CCc2[nH]c(-c3c(F)cccc3F)cc2C1 [Example 121, 2-(2,6-Difluoro-phenyl)-5-[2-methyl-4-(pyrrolidin-1-ylsulfonyl)-phenyl]-4,5,6,7-tetrahydro-1H-pyrrolo[3,2-c]pyridine]	> 70%	1 to 5 µM
Cc1cc(S(C)(=O)=O)ncc1N1CCc2[nH]c(-c3ccccc3F)cc2C1 [Example 79, 2-(2-Fluorophenyl)-5-(4-methyl-6-methylsulfonyl-pyridin-3-yl)-4,5,6,7-tetrahydro-1H-pyrrolo[3,2-c]pyridine]	> 70%	0.5 to 1 µM
Cc1nc(N2CCc3[nH]c(-c4c(F)cccc4F)cc3C2)ccc1Br [Example 25, 5-(5-Bromo-6-methyl-pyridin-2-yl)-2-(2,6-difluoro-phenyl)-4,5,6,7-tetrahydro-1H-pyrrolo[3,2-c]pyridine]	< 50%	1 to 5 µM
